Consider 24 molecules from patent publication US20160089371A1, “Combination of Kinase Inhibitors and Uses Thereof” (INTELLIKINE, LLC, priority 2013, published 2016).

The test system of one series is PC3. As to the kind of experiment: PC3 proliferation. It is filed as cell-based. The conditions noted are these: Homo sapiens, PC-3; PC3 cell line (compounds before 438).
The subject of a further series is T47D. As to the kind of experiment: T47D proliferation. It is filed as cell-based. The settings on record: Homo sapiens; T47D cell line.
The next series concerns the target PI3K γ (Homo sapiens, UniProt P48736). As to the kind of experiment: PI 3-Kinase (human) HTRF assay, p110γ. (In general: In TR-FRET formats the signal depends on donor and acceptor labels being close together.)
The target of a further series is PI3K α (Homo sapiens, UniProt P42336). As to the kind of experiment: PI 3-Kinase (human) HTRF assay, p110α/p85α.
Sequence of PI3K α (P42336 whole entry): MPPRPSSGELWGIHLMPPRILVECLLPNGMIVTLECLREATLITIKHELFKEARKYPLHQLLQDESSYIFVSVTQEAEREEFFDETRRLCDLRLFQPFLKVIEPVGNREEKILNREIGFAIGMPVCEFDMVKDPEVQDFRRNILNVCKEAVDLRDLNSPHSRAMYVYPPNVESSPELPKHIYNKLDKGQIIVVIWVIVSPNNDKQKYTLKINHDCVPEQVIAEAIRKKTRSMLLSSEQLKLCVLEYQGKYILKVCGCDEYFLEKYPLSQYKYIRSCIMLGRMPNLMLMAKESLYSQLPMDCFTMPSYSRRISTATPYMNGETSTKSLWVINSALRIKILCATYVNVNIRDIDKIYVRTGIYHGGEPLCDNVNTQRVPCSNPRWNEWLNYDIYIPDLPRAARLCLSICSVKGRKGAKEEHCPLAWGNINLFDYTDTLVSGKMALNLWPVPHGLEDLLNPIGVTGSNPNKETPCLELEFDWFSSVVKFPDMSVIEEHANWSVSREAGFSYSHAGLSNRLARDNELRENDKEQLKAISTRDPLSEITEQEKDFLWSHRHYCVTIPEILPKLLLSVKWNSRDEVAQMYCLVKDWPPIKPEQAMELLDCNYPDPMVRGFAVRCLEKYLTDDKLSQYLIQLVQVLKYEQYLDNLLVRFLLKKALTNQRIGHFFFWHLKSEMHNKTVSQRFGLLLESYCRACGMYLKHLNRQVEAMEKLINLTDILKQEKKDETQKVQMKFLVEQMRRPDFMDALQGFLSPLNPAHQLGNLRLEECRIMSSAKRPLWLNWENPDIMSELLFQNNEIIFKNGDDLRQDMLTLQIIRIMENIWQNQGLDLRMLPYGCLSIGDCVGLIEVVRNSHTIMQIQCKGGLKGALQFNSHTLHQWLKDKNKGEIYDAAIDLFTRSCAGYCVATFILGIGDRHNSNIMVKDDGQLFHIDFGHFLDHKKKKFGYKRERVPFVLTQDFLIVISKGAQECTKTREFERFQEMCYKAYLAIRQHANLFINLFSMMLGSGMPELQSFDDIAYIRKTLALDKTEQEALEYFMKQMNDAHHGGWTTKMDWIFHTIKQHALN
Sequence of PI3K α (P27986 whole entry partner): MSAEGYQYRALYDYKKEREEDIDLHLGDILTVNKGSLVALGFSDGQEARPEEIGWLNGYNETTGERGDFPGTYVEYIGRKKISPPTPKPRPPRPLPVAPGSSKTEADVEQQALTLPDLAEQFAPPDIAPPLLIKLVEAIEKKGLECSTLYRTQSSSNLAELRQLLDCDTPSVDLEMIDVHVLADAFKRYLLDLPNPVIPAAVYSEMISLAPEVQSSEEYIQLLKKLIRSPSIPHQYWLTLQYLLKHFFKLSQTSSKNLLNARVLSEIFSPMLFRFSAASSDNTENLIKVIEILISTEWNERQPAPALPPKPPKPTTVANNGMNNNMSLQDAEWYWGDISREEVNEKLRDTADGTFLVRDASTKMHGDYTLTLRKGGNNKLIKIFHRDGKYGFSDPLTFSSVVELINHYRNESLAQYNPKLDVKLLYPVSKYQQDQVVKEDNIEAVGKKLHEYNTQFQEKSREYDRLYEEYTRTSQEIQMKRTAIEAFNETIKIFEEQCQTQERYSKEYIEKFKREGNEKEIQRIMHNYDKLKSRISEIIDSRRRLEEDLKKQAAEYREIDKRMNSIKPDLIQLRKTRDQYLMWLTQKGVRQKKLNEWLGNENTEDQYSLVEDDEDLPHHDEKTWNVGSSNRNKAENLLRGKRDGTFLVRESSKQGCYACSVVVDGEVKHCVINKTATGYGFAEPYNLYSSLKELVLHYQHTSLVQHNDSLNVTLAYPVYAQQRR
In another series the target is PI3K β (Homo sapiens, UniProt P42338). As to the kind of experiment: PI 3-Kinase (human) HTRF assay, p110β/p85α.
Sequence of PI3K β (P42338 whole entry): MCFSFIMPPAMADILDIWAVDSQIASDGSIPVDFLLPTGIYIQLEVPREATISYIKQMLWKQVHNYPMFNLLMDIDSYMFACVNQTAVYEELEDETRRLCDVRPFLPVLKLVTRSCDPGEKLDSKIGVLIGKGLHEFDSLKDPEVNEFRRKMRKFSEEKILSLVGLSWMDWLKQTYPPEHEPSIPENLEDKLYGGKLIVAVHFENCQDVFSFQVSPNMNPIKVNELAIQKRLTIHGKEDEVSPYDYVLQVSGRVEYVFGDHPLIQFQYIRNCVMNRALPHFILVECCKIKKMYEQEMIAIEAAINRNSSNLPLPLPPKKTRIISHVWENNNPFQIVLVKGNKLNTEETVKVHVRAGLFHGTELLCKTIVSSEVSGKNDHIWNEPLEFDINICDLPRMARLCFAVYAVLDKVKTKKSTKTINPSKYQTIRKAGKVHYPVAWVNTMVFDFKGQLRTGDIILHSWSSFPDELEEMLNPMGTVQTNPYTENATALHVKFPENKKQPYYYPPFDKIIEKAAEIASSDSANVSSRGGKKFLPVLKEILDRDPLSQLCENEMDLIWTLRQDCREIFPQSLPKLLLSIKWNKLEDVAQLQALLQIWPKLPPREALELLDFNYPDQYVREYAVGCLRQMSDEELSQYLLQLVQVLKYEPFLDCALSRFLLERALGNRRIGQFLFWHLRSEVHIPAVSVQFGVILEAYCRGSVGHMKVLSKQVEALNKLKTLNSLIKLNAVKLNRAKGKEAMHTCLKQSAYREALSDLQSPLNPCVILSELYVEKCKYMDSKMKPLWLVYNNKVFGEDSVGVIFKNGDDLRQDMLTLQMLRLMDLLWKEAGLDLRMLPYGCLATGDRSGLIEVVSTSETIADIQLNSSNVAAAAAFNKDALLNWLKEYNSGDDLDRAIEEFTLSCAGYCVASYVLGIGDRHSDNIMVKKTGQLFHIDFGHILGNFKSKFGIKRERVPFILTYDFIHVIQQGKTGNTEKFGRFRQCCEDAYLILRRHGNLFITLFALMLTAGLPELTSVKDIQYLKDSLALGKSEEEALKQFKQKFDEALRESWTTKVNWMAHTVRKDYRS
Sequence of PI3K β (P27986 whole entry partner): as the sequence (P27986 whole entry partner) above
The target in another series is PI3K δ (Homo sapiens, UniProt O00329). As to the kind of experiment: PI 3-Kinase (human) HTRF assay, p110δ/p85α.
Sequence of PI3K δ (O00329 whole entry): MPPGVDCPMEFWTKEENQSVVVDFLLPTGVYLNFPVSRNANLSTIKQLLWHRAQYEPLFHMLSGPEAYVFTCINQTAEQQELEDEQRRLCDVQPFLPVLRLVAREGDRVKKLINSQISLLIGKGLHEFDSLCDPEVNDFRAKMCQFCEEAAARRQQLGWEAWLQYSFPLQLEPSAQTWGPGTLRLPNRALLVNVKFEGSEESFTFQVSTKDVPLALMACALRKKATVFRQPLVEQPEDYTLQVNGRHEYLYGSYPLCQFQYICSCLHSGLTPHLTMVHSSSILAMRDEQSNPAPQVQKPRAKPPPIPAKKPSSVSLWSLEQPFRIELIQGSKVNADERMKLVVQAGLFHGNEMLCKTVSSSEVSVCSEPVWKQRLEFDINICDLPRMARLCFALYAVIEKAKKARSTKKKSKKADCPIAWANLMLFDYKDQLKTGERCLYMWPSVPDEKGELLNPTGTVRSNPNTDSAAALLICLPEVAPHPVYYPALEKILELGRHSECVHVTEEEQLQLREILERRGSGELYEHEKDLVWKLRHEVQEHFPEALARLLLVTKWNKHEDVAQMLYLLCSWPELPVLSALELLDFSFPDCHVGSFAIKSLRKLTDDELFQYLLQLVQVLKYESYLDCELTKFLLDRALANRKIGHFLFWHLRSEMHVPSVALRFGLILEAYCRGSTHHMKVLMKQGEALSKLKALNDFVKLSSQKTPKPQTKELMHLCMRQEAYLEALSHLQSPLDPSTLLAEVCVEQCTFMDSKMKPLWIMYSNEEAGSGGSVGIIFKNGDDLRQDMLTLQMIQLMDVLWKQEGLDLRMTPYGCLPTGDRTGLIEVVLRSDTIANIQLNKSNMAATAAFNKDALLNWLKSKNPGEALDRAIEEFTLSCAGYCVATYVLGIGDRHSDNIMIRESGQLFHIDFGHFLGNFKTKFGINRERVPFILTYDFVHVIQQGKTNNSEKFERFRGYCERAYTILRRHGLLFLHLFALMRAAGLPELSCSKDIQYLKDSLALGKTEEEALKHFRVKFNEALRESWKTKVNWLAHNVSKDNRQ
Sequence of PI3K δ (P27986 whole entry partner): as the sequence (P27986 whole entry partner) above
In another series the target is T1, mTOR (Homo sapiens, UniProt P42345).
T1 construct: purchased Invitrogen
Kind of series: Inhibition assay of mTOR (radiometric or LanthaScreen TR-FRET). It is filed as biochemical. The settings on record: read-out: mTORC IC50.

A further series concerns MDA-MB-361. Kind of series: MDA-MB-361 proliferation. Format: cell-based. The conditions noted are these: Homo sapiens.
A further series deals with B cell function. As to the kind of experiment: B cell function in vivo, antibody production after TNP-Ficoll immunization. The settings on record: mice immunized with TNP-Ficoll; 70 mg/kg GDC0941; 30, 60 or 120 mg/kg Compound A; 7 days; FIG. 8. As to the method:
Mice were immunized with TNP-Ficoll and treated with 1) vehicle; 2) 70 mg/kg GDC0941; 3) 30 mg/kg Compound A; 4) 60 mg/kg Compound A; or 5) 120 mg/kg Compound A for 7 days. Antibody production was measured as a percentage of control group that were treated with vehicle.

For series [1], the system named is MDA-MB-361 (PI3Kα/HER2 carcinoma) tumors. As to the kind of experiment: In vivo efficacy in xenogenic mouse model of breast cancer. More on the design: species or system nude mice. The conditions noted are these: 70 mg/kg Pan-PI3K inhibitor; 60 mg/kg compound A. Here is the method: Blood glucose was monitored periodically following administration of treatment.
Treatment of tumors (MDA-MB-361) with compounds was discontinued on Day 30. Tumors were measured every 2-5 days.

In series [2] the test system is anti-TNP antibody production (B cell function). As to the kind of experiment: TNP-Ficoll T-cell independent B-cell activation assay. It is filed as in vivo, mice. The conditions noted are these: 70 mg/kg GDC0941; 30, 60 or 120 mg/kg Compound A; 7 days. Here is the method:
To test the effects of the compounds of the present invention in suppressing T cell independent antibody production, the TNP-Ficoll B-cell activation assay is used as described herein. Compounds of the present invention are dissolved in an appropriate vehicle (e.g. 5% 1-methyl-2-pyrrolidinone, 85% polyethylene glycol 400, 10% Solutor). Compounds are administered orally approximately lhr before TNP-Ficoll treatment to 4-10 week old mice. To study the effects of the compounds on B-cell activation, one set of mice are grouped according to the following table:
Four animals in group 1, and eight animals in groups 2 to 7 are euthanized in CO2 2 hours after the last compound administration on day 7. […]
Serum samples are analyzed for anti-TNP antibody titers by ELISA as described herein. […] HRP substrate (200 μl ABTS solution+30% H2O2+10 ml citrate buffer) is added to each well at 100 μl/well, incubated 2-20 minutes in the dark and the amount of anti-TNP IgG3 is determined spectrophotometrically at 405 nm. Similarly, anti-TNP IgM and total anti-TNP Ab are determined using anti-mouse IgM-HRP and anti-mouse Ig-HRP respectively.
Antibody production was measured using ELISA and plotted as a percentage of control group that were treated with vehicle.

The next series relates to marginal zone B cells. Kind of series: Marginal zone B cells in mouse spleen (FACS). The conditions noted are these: 70 mg/kg Pan-PI3K inhibitor; 60 mg/kg Compound A; spleens 2 hrs after last dose.

Read-outs that look alike come from different tables or passages of the source. Bounds are passed on as bounds.

Sequence of PI3K γ (P48736 whole entry): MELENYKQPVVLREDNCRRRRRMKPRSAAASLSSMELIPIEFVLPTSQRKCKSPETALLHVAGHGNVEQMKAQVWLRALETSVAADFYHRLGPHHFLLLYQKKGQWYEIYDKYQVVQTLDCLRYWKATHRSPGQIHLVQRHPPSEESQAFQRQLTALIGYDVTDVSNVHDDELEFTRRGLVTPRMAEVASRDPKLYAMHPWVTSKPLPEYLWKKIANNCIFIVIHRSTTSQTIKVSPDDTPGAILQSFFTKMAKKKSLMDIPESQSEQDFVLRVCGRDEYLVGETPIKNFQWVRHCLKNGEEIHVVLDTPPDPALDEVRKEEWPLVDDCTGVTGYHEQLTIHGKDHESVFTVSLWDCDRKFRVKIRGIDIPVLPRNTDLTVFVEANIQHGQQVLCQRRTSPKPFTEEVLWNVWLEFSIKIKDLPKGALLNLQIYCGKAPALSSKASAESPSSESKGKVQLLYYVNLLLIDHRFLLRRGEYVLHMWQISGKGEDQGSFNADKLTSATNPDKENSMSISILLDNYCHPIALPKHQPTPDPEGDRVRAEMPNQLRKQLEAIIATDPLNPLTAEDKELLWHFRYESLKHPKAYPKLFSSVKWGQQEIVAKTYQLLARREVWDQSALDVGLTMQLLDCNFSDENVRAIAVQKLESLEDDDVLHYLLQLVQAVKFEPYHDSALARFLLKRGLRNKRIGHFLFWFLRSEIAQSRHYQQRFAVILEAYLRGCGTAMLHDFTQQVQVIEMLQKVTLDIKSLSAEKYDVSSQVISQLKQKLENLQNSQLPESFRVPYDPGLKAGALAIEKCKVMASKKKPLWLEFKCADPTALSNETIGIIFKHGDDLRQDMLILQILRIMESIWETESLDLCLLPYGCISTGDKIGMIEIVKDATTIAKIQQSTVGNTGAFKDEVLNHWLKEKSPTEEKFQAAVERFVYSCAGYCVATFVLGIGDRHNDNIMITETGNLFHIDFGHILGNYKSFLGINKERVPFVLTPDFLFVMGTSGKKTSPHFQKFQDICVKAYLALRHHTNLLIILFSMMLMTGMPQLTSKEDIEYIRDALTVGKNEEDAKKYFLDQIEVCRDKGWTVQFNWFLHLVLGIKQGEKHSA
Method for PI3K α: (§1) An exemplary system is PI 3-Kinase (human) HTRF™ Assay from Upstate. […] Briefly, the assay is a time resolved FRET assay that indirectly measures PIP3 product formed by the activity of a PI3-K. The kinase reaction is performed in a microtiter plate (e.g., a 384 well microtiter plate). The total reaction volume is approximately 20 ul per well. In the first step, each well receives 2 ul of test compound in 20% dimethylsulphoxide resulting in a 2% DMSO final concentration. […] The plate is sealed and incubated for 15 minutes at room temperature. […] The plate is sealed and incubated for 1 hour at room temperature. The reaction is stopped by adding 5 ul of Stop Solution per well and then 5 ul of Detection Mix is added per well. The plate is sealed, incubated for 1 hour at room temperature, and then read on an appropriate plate reader. Data is analyzed and IC50s are generated using GraphPad Prism 5.
Method for PI3K β: as §1
Method for PI3K γ: (§2) Briefly, the assay is a time resolved FRET assay that indirectly measures PIP3 product formed by the activity of a PI3-K. The kinase reaction is performed in a microtiter plate (e.g., a 384 well microtiter plate). The total reaction volume is approximately 20 ul per well. In the first step, each well receives 2 ul of test compound in 20% dimethylsulphoxide resulting in a 2% DMSO final concentration. […] The plate is sealed and incubated for 15 minutes at room temperature. […] The plate is sealed and incubated for 1 hour at room temperature. The reaction is stopped by adding 5 ul of Stop Solution per well and then 5 ul of Detection Mix is added per well. The plate is sealed, incubated for 1 hour at room temperature, and then read on an appropriate plate reader. Data is analyzed and IC50s are generated using GraphPad Prism 5.
Method for PI3K δ: as §2
Method for mTOR: The compounds described herein can be tested against recombinant mTOR (Invitrogen) in an assay containing 50 mM HEPES, pH 7.5, 1 mM EGTA, 10 mM MgCl2, 2.5 mM, 0.01% Tween, 10 μM ATP (2.5 μCi of μ-32P-ATP), and 3 μg/mL BSA. Rat recombinant PHAS-1/4EBP1 (Calbiochem; 2 mg/mL) is used as a substrate. Reactions are terminated by spotting onto nitrocellulose, which is washed with 1M NaCl/1% phosphoric acid (approximately 6 times, 5-10 minutes each). Sheets are dried and the transferred radioactivity quantitated by phosphorimaging.
For instance, one can use Invitrogen's LanthaScreen™ Kinase assay to test the inhibitors of mTOR disclosed herein. This assay is a time resolved FRET platform that measures the phosphorylation of GFP labeled 4EBP1 by mTOR kinase. The kinase reaction is performed in a white 384 well microtiter plate. The total reaction volume is 20 ul per well and the reaction buffer composition is 50 mM HEPES pH7.5, 0.01% Polysorbate 20, 1 mM EGTA, 10 mM MnCl2, and 2 mM DTT. In the first step, each well receives 2 ul of test compound in 20% dimethylsulphoxide resulting in a 2% DMSO final concentration. […] The plate is sealed and incubated for 1 hour at room temperature. […] The plate is sealed, incubated for 1 hour at room temperature, and then read on a plate reader set up for LanthaScreen™ TR-FRET. Data is analyzed and IC50s are generated using GraphPad Prism 5.
Method for marginal zone B cells: The effect of the compounds on the localization/viability of marginal zone B cells in the spleen is also evaluated at the conclusion of treatment.
Spleens were harvested 2 hrs after the last dose, processed and stained with appropriate antibodies (marginal zone B cell: B220+; CD23−; CD21hi) and analyzed for staining on GUAVA EasyCyte FACS machine using Guava Cytosoft 5.2 software.

Regarding `Nc1nc2cc(-c3ccc4nccc(-c5ccncc5)c4c3)ccc2o1` [Compound 1], the IC50 in the series with PC3 was below 1000 nM; with T47D, below 1 µM.
Turning to `Nc1nc2cc(-c3ccc4ncc(N[C@H]5CC[C@H](O)CC5)nc4c3)ccc2o1` [Compound 128], the IC50 at PI3K γ is below 0.1 µM; on PI3K α it was below 0.1 µM; against PI3K β, below 10 µM; against PI3K δ it was below 0.1 µM.
Regarding `Nc1nc2cc(-c3ccc4ncc(N5CCNC(=O)C5)nc4c3)ccc2o1` [Compound 135], the IC50 against PI3K β is below 0.1 µM; against PI3K δ, below 10 µM.
`CN1CCC(N(C)c2ncnc3ccc(-c4ccc5oc(N)nc5c4)cc23)CC1` [Compound 155] displayed an IC50 at PI3K γ below 1 µM.
As for `CC1CN(C(=O)c2cnc3ccc(-c4ccc5oc(N)nc5c4)cn23)CCN1` (centres unmarked) [Compound 164], the IC50 with T47D is below 1 µM.
On to `Nc1nc2cc(-c3ccc4ncc(N5CCC(N)CC5)nc4c3)ccc2o1` [Compound 168], for which the IC50 at PI3K γ is below 10 µM.
Turning to `CN1CCC(NC(=O)c2cnc3ccc(-c4ccc5oc(N)nc5c4)cn23)CC1` [Compound 203], the IC50 is below 0.1 µM at PI3K γ, below 0.1 µM at PI3K β and below 1 µM against PI3K δ.
`CC(C)[C@H](N)C(=O)N1CCN(c2cnc3ccc(-c4ccc5oc(N)nc5c4)cc3n2)CC1` [Compound 269]: on PI3K γ, the IC50 is below 10 µM.
At PI3K γ, `CC(C)[C@@H](N)C(=O)N1CCN(c2cnc3ccc(-c4ccc5oc(N)nc5c4)cc3n2)CC1` [Compound 270] came in with an IC50 below 1 µM.
For `CN1CCN(CCNC(=O)c2cnc3ccc(-c4ccc5oc(N)nc5c4)cn23)CC1` [Compound 306], the IC50 on PI3K γ is below 1 µM.
With `C[C@H]1CN(c2cnc3ccc(-c4ccc5oc(N)nc5c4)cc3n2)CCN1C` [Compound 332], on PI3K γ, the IC50 was below 1 µM.
On to `Nc1nc2cc(-c3ccn4ncc(C(=O)N5CCOCC5)c4c3)cc(Cl)c2o1` [Compound 359], for which the IC50 on PI3K γ was below 0.1 µM; against PI3K α, below 0.1 µM; against PI3K β it was below 1 µM; against PI3K δ, below 10 µM.
`Nc1nc2cc(-c3ccc4ncc(N5CC[C@H](N6CCOCC6)C5)nc4c3)ccc2o1` [Compound 375]: the IC50 against PI3K γ is below 0.1 µM; at PI3K δ, below 10 µM.
On to `CN1CCN([C@@H]2CCN(c3cnc4ccc(-c5ccc6oc(N)nc6c5)cc4n3)C2)CC1` [Compound 379], for which, at mTOR, the IC50 was above 10 µM.
Take `O=C(c1cnc2ccc(-c3ccc(Cl)c(NS(=O)(=O)c4ccc(F)cc4F)c3)cn12)N1CCOCC1` [Compound 461]: at PI3K γ, the IC50 was below 1 µM.
On to `Nc1nc2cc(-c3ccc4ncc(C(=O)N5CC(N6CC[C@@H](O)C6)C5)n4c3)ccc2o1` [Compound 470], for which the IC50 against PI3K γ is below 0.1 µM; on PI3K β, above 10 µM; against PI3K δ it was above 10 µM.
As to `Nc1nc2cc(-c3ccc4ncc(C(=O)N5CC[C@H](F)C5)n4c3)ccc2o1` [Compound 476], the IC50 is below 1 µM at PI3K γ and below 10 µM at PI3K δ.
As to `Nc1nc2cc(-c3ccc4ncc(C(=O)N5CC[C@H](n6cccn6)C5)n4c3)ccc2o1` [Compound 478], on PI3K δ, the “PI3K δ IC50 (nM)” value is “+++ +++”.
For `O=C(c1cnc2ccc(-c3ccc4c(Nc5ccccc5)noc4c3)cn12)N1CCOCC1` [Compound 509], the IC50 was below 10000 nM with MDA-MB-361 (PC-3, read-out: PC3 proliferation (nM)*); below 10 µM against PI3K γ; below 0.1 µM against PI3K α; below 10 µM against PI3K β; below 1 µM against PI3K δ.
The molecule `[2H]c1c(-c2ccc3ncc(C(=O)N4CCOCC4)n3c2)c([2H])c2nc(N)oc2c1[2H]` [Compound 531] showed an IC50 on PI3K γ below 0.1 µM.
Regarding `CN1CCN(c2cnc3ccc(-c4ccc5nc(N)oc5c4)cn23)CC1` [Compound 542], the IC50 on PI3K γ, on PI3K α, at PI3K β and at PI3K δ was above 10 µM in each case.
Take `Nc1nc2cc(-c3ccc4ncc(-c5cccnc5)nc4n3)ccc2o1` [Compound 567]: the IC50 in the series on MDA-MB-361 (MDA-MB-361 cells, Table 4, read-out: MDA-MB-361 proliferation (nM)*) was above 10000 nM; on PI3K γ, below 0.1 µM; against PI3K α, below 0.1 µM; against PI3K δ it was below 10 µM.
For `Nc1nc2cc(-c3ccc4ncc(N5CC(N6CCOCC6)C5)nc4n3)ccc2o1` [Compound 604], the IC50 at mTOR (Table 4, PI3K α inhibitors) is above 10 µM; at PI3K γ it was below 1 µM; against PI3K β, below 10 µM.
In the case of `CS(=O)(=O)N1CCN(Cc2cc3nc(-c4cccc5[nH]ncc45)nc(N4CCOCC4)c3s2)CC1` [Pan-PI3K inhibitor, GDC0941, reference compound], in the series with B cell function, the “B cell function in vivo (antibody production, percentage of vehicle control)” value is “blocks B cell function”. The “tumor weight in breast cancer model (FIG. 9 left panel)” value in series [1] is listed as “reduction in tumor weight”. Moreover, the “B cell function in vivo, antibody production after TNP-Ficoll (FIG. 8)” value in series [2] is on record as “blocks B cell function in vivo”. Further, the “presence (localization/viability) of marginal zone B cells in mouse spleen (FIG. 9 right panel)” value in the series with marginal zone B cells is listed as “reduced presence of MZB cells”.
